Converted amounts (≈) assume the structure as drawn.
How the values were obtained:
Strept. pyogenes N.Y. 5 = test: MIC by agar dilution method, Strept. pyogenes N.Y. 5; assay type: cell-based; conditions: Streptococcus pyogenes, read-out: minimum inhibitory concentration (MIC)
[1] = tested on: Kleb. pneumoniae ATCC10031; test: MIC by agar dilution method, Kleb. pneumoniae ATCC10031; assay type: cell-based; conditions: Klebsiella pneumoniae, read-out: minimum inhibitory concentration (MIC)
[2] = tested on: Enterobac. aerogenes 0655; test: MIC by agar dilution method, Enterobac. aerogenes 0655; assay type: cell-based; conditions: read-out: minimum inhibitory concentration (MIC)
E. coli W3630RGN14 = test: MIC by agar dilution method, E. coli W3630RGN14; assay type: cell-based; conditions: Escherichia coli, W3630RGN14, read-out: minimum inhibitory concentration (MIC)
Staph. aureus ATCC6538P = test: MIC by agar dilution method, Staph. aureus ATCC6538P; assay type: cell-based; conditions: Staphylococcus aureus, read-out: minimum inhibitory concentration (MIC)
Shigella sonnei E33 = test: MIC by agar dilution method, Shigella sonnei E33; assay type: cell-based; conditions: read-out: minimum inhibitory concentration (MIC)
Cit. freundii GN346 = test: MIC by agar dilution method, Cit. freundii GN346; assay type: cell-based; conditions: Citrobacter freundii, read-out: minimum inhibitory concentration (MIC)
Staph. aureus MS27 = test: MIC by agar dilution method, Staph. aureus MS27; assay type: cell-based; conditions: Staphylococcus aureus, read-out: minimum inhibitory concentration (MIC)
Proteus rettgeri ACR = test: MIC by agar dilution method, Proteus rettgeri ACR; assay type: cell-based; conditions: Providencia rettgeri, read-out: minimum inhibitory concentration (MIC)
E. coli W3630 = test: MIC by agar dilution method, E. coli W3630; assay type: cell-based; conditions: Escherichia coli, read-out: minimum inhibitory concentration (MIC)
E. coli NIHJ-JC2 = test: MIC by agar dilution method, E. coli NIHJ-JC2; assay type: cell-based; conditions: Escherichia coli, NIHJJC2, read-out: minimum inhibitory concentration (MIC)
[3] = tested on: Salm. enteritidis Gaertner; test: MIC by agar dilution method, Salm. enteritidis Gaertner; assay type: cell-based; conditions: Salmonella enterica, read-out: minimum inhibitory concentration (MIC)
Staph. aureus 0119 = test: MIC by agar dilution method, Staph. aureus 0119; assay type: cell-based; conditions: Staphylococcus aureus, read-out: minimum inhibitory concentration (MIC)
Proteus morganii 0239 = test: MIC by agar dilution method, Proteus morganii 0239; assay type: cell-based; conditions: Morganella morganii, read-out: minimum inhibitory concentration (MIC)
[4] = tested on: Pseudo. aeruginosa IAM1095; test: MIC by agar dilution method, Pseudo. aeruginosa IAM1095; assay type: cell-based; conditions: Pseudomonas aeruginosa, read-out: minimum inhibitory concentration (MIC)
[5] = tested on: Bacillus subtilis ATCC6633; test: MIC by agar dilution method, Bacillus subtilis ATCC6633; assay type: cell-based; conditions: read-out: minimum inhibitory concentration (MIC)
Serratia marcescens = test: MIC by agar dilution method, Serratia marcescens; assay type: cell-based; conditions: read-out: minimum inhibitory concentration (MIC)
Solubility = assay type: physicochemical
Enterobac. cloacae GN336 = test: MIC by agar dilution method, Enterobac. cloacae GN336; assay type: cell-based; conditions: read-out: minimum inhibitory concentration (MIC)
[6] = tested on: Staph. epidermidis sp-al-1; test: MIC by agar dilution method, Staph. epidermidis sp-al-1; assay type: cell-based; conditions: Staphylococcus epidermidis, SPAL1, read-out: minimum inhibitory concentration (MIC)

## CNC1C(O)C(NC)C2OC3(O)C(OC)=CC(C)OC3OC2C1O (stereo not drawn) [acmimycin]
Strept. pyogenes N.Y. 5
  MIC: 3.1 µg/mL (≈ 8.95 µM)
[1]
  MIC: 12.5 µg/mL (≈ 36.1 µM)
[2]
  MIC: > 100 µg/mL
E. coli W3630RGN14
  MIC: > 100 µg/mL
Staph. aureus ATCC6538P
  MIC: 100 µg/mL (≈ 289 µM)
Shigella sonnei E33
  MIC: 25 µg/mL (≈ 72.2 µM)
Cit. freundii GN346
  MIC: > 100 µg/mL
Staph. aureus MS27
  MIC: 100 µg/mL (≈ 289 µM)
Proteus rettgeri ACR
  MIC: 100 µg/mL (≈ 289 µM)
E. coli W3630
  MIC: 25 µg/mL (≈ 72.2 µM)
E. coli NIHJ-JC2
  MIC: 50 µg/mL (≈ 144 µM)
[3]
  MIC: 25 µg/mL (≈ 72.2 µM)
Staph. aureus 0119
  MIC: > 100 µg/mL
Proteus morganii 0239
  MIC: > 100 µg/mL
[4]
  MIC: > 100 µg/mL
[5]
  MIC: 25 µg/mL (≈ 72.2 µM)
Serratia marcescens
  MIC: 25 µg/mL (≈ 72.2 µM)
Solubility; in acetone
  Solubility: insoluble
Solubility; in benzene
  Solubility: insoluble
Solubility; in ethyl acetate
  Solubility: insoluble
Solubility; in lower alcohols such as methanol
  Solubility: slightly soluble
Solubility; in water
  Solubility: soluble
Enterobac. cloacae GN336
  MIC: 50 µg/mL (≈ 144 µM)
[6]
  MIC: 50 µg/mL (≈ 144 µM)
